Experiments:
[1] = Fraction unbound in Wistar Han rat skeletal muscle at 2 uM incubated for 6 hrs by equilibrium dialysis method
[2] = Drug concentration in total white adipose tissue in Wistar Han rat at 1 to 2 mg/kg, iv infused for 10 to 20 hrs by LC-MS/MS analysis; conditions: in vivo
[3] = Unbound tissue partition coefficient, ratio of drug level in adipose to plasma in Wistar Han rat at 1 to 2 mg/kg, iv infused for 10 to 20 hrs by LC-MS/MS analysis
[4] = Drug concentration in total skeletal muscle in Wistar Han rat at 1 to 2 mg/kg, iv infused for 10 to 20 hrs by LC-MS/MS analysis; conditions: in vivo
[5] = Apparent permeability of the compound across dog RRCK cells by MDCK-LE assay
[6] = Unbound tissue partition coefficient, ratio of drug level in brain to plasma in mouse administered as single dose; format: ADME; conditions: read-out: K(p,uu,brain)
[7] = Drug concentration in total heart in Wistar Han rat at 1 to 2 mg/kg, iv infused for 10 to 20 hrs by LC-MS/MS analysis; conditions: in vivo
[8] = Fraction unbound in Wistar Han rat heart at 2 uM incubated for 6 hrs by equilibrium dialysis method
[9] = Drug concentration in total brain in Wistar Han rat at 1 to 2 mg/kg, iv infused for 10 to 20 hrs by LC-MS/MS analysis; conditions: in vivo
[10] = Fraction unbound in Wistar Han rat white adipose tissue at 2 uM incubated for 6 hrs by equilibrium dialysis method
[11] = Fraction unbound in Wistar Han rat plasma at 2 uM incubated for 6 hrs by equilibrium dialysis method
[12] = Unbound tissue partition coefficient, ratio of drug level in skeletal muscle to plasma in Wistar Han rat at 1 to 2 mg/kg, iv infused for 10 to 20 hrs by LC-MS/MS analysis
[13] = Fraction unbound in Wistar Han rat brain at 2 uM incubated for 6 hrs by equilibrium dialysis method
[14] = Fraction unbound in Wistar Han rat liver at 2 uM incubated for 6 hrs by equilibrium dialysis method
[15] = Total plasma concentration in Wistar Han rat at 1 to 2 mg/kg, iv infused for 10 to 20 hrs by LC-MS/MS analysis; conditions: in vivo
[16] = Unbound tissue partition coefficient, ratio of drug level in liver to plasma in Wistar Han rat at 1 to 2 mg/kg, iv infused for 10 to 20 hrs by LC-MS/MS analysis
[17] = Unbound tissue partition coefficient, ratio of drug level in heart to plasma in Wistar Han rat at 1 to 2 mg/kg, iv infused for 10 to 20 hrs by LC-MS/MS analysis
[18] = Drug concentration in total liver in Wistar Han rat at 1 to 2 mg/kg, iv infused for 10 to 20 hrs by LC-MS/MS analysis; conditions: in vivo
[19] = Unbound tissue partition coefficient, ratio of drug level in brain to plasma in Wistar Han rat at 1 to 2 mg/kg, iv infused for 10 to 20 hrs by LC-MS/MS analysis

Ct [2] | Ct [4] | Papp [5] | Kp uu [6] | Ct [7] | Ct [9] | Cp [15] | Ct [18] | Kp uu ([3]; other tissue) | SMILES | fraction unbound at 6 h, 2 µM [1] | Kp uu ([3]; adipose/plasma) | fraction unbound at 6 h, 2 µM [8] | fraction unbound at 6 h, 2 µM [10] | fraction unbound at 6 h, 2 µM [11] | Kp uu ([12]; skeletal muscle/plasma) | fraction unbound at 6 h, 2 µM [13] | fraction unbound at 6 h, 2 µM [14] | Kp uu ([16]; liver/plasma) | Kp uu ([17]; heart/plasma) | Kp uu ([19]; brain/plasma) | also measured
5.6 ng/mL | 52 ng/mL | 22 ×10⁻⁶ cm/s | 0.065 | 56 ng/mL | 2.9 ng/mL | 14 ng/mL | 32 ng/mL |  | CN1CC[C@H](c2c(O)cc(O)c3c(=O)cc(-c4ccccc4Cl)oc23)[C@H](O)C1 [ALVOCIDIB] | 0.033 | 2.7 | 0.0624 | 1 | 0.147 | 0.86 | 0.0442 | 0.021 | 0.33 | 1.7 | 0.06 | 
33 ng/mL | 100 ng/mL | 26 ×10⁻⁶ cm/s | 0.059 | 180 ng/mL | 11 ng/mL | 40 ng/mL | 640 ng/mL | 1.2 | COc1cc2nc(N3CCN(C(=O)c4ccco4)CC3)nc(N)c2cc1OC [PRAZOSIN] |  |  |  |  |  |  |  |  |  |  |  | Kp uu ([12]; other tissue): 0.68; Kp uu ([16]; other tissue): 2.8; Kp uu ([17]; other tissue): 2.4; Kp uu ([19]; brain): 0.11
 |  | 9.9 ×10⁻⁶ cm/s | 0.019 |  |  |  |  | 9.6 | CC(C)c1nc(CN(C)C(=O)N[C@H](C(=O)N[C@@H](Cc2ccccc2)C[C@H](O)[C@H](Cc2ccccc2)NC(=O)OCc2cncs2)C(C)C)cs1 [RITONAVIR] |  |  |  |  |  |  |  |  |  |  |  | Ct ([2]; Wistar Han): 31 ng/mL; Ct ([4]; Wistar Han): 42 ng/mL; Ct ([7]; Wistar Han): 170 ng/mL; Ct ([9]; Wistar Han): 0.38 ng/mL; Kp uu ([12]; other tissue): 0.56; Cp ([15]; Wistar Han): 27 ng/mL; Kp uu ([16]; other tissue): 1.2; Kp uu ([17]; other tissue): 9.6; Ct ([18]; Wistar Han): 370 ng/mL; Kp uu ([19]; brain): 0.0018

SMILES | Ct [2] | Ct [4] | Papp [5] | Kp uu [6] | Ct [7] | Ct [9] | Cp [15] | Ct [18] | Kp uu ([3]; other tissue) | fraction unbound at 6 h, 2 µM [1] | Kp uu ([3]; adipose/plasma) | fraction unbound at 6 h, 2 µM [8] | fraction unbound at 6 h, 2 µM [10] | fraction unbound at 6 h, 2 µM [11] | Kp uu ([12]; skeletal muscle/plasma) | fraction unbound at 6 h, 2 µM [13] | fraction unbound at 6 h, 2 µM [14] | Kp uu ([16]; liver/plasma) | Kp uu ([17]; heart/plasma) | Kp uu ([19]; brain/plasma) | also measured
CN(C)C(=O)C(CCN1CCC(O)(c2ccc(Cl)cc2)CC1)(c1ccccc1)c1ccccc1 [LOPERAMIDE] | 130 ng/mL | 170 ng/mL | 2.7 ×10⁻⁶ cm/s | 0.059 | 390 ng/mL | 1.3 ng/mL | 74 ng/mL | 590 ng/mL |  | 0.0022 | 0.1 | 0.00677 | 0.00264 | 0.0462 | 0.11 | 0.00591 | 0.000644 | 0.11 | 0.79 | 0.002 | 

From ChEMBL document CHEMBL4373746, “Structural attributes influencing unbound tissue distribution” (Eur J Med Chem, 2020)
